# Source: patent US20230002387A1, “2-AMINO-S6-SUBSTITUTED THIOPURINE COMPOUNDS AS INHIBITORS OF THE ENPP1 PROTEIN” (ATEN PORUS LIFESCIENCES PVT. LTD., priority 2019, published 2023)
# Molecular target: T1, ENPP1 (Homo sapiens, UniProt P22413)
# T1 sequence (P22413 1-925): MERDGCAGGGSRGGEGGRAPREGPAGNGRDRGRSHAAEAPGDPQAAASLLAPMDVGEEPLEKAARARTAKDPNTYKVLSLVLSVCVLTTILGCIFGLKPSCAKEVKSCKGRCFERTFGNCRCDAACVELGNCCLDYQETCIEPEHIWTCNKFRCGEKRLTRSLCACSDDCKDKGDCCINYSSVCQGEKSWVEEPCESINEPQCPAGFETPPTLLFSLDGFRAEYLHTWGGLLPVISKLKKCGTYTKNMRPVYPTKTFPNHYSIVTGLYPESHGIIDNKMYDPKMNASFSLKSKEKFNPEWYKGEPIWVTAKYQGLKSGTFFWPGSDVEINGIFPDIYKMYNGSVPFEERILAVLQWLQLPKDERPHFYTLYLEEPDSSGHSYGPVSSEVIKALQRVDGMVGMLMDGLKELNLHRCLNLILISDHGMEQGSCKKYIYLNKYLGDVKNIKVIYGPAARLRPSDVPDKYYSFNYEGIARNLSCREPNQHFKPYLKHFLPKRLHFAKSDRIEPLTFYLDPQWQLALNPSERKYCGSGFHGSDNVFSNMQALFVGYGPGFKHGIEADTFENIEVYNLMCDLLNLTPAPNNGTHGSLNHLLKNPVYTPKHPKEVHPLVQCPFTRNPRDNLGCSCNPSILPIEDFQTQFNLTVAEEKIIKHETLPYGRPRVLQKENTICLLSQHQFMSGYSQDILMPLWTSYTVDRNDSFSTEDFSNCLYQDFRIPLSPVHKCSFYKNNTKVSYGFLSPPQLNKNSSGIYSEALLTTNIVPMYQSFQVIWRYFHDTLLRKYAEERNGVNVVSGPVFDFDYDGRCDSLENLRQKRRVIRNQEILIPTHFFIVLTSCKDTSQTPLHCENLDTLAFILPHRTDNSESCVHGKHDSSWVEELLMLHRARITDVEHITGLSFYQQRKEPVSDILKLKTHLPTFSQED
# Assay: Capillary electrophoresis-based NPP assay with ATP as a substrate (ENPP1 inhibition, Ki)
# Format: biochemical
# Conditions: bin of Table 2; Ki from IC50 by Cheng-Prusoff, 400 μM ATP
# Method: Here, a Capillary Electrophoresis based method was used to determine the IC50 values for ENPP1 Inhibitors for ENNP1 protein.
# The inhibitors synthesized were assessed for ENPP1 inhibitory potency against the natural substrate ATP. The enzyme inhibition assays were performed in 10 mM 2-(N-cyclohexylamino)-ethanesulfonic acid (CHES) buffer (pH 10.0) including 1 mM MgCl2, 2 mM CaCl2), and 400 μM of ATP, with different inhibitor concentrations. The reaction mixture was incubated with 20 ng human NPP1 at 37° C. for 30 min in a final volume of 100 μL, and the reactions were stopped by heating at 90° C. for 3 min. Finally, the reaction mixtures were directly measured by capillary electrophoresis (CE). The CE instrumentation and operating conditions were as follows: P/ACE MDQ capillary electrophoresis system (Beckman Instruments, Fullerton, Calif., USA) with a DAD detection system, polyacrylamide-coated capillaries of 40 cm effective length×[…] (id) obtained from CS Chromatographie GmbH (Langerwehe, Germany), 50 mM phosphate buffer (pH 6.5) as running buffer, electrokinetic injection (−6 kV, 60 s), separation voltage of −15 kV. The amounts of AMP produced were measured at 260 nm. Data collection and peak area analysis were performed by 32 Karat software obtained from Beckman Coulter (Fullerton, Calif., USA).
# The IC50 values of test compounds were calculated by plotting data in the program Prism 5.0, and the Ki values were calculated from the IC50 values with the Cheng-Prusoff equation (Tables 2-4).
row,SMILES,Ki [nM]
1,COc1ccnc(NC(=O)C(C)(C)Sc2nc(N)nc3nc[nH]c23)n1 [Compound 504],≤ 100
2,COc1ccnc(NC(=O)[C@H](CCc2ccccc2)Sc2nc(N)nc3nc[nH]c23)n1 [Compound 506],≤ 100
3,COc1ccnc(NC(=O)[C@@H](CCc2ccccc2)Sc2nc(N)nc3nc[nH]c23)n1 [Compound 507],≤ 100
4,CC[C@@H](Sc1nc(N)nc2nc[nH]c12)C(=O)Nc1ncc(Br)c(OC)n1 [Compound 508],≤ 100
5,CC[C@H](Sc1nc(N)nc2nc[nH]c12)C(=O)Nc1ncc(Br)c(OC)n1 [Compound 509],≤ 100
6,COc1ccnc(NC(=O)[C@@H](Sc2nc(N)nc3nc[nH]c23)C(C)C)n1 [Compound 510],≤ 100
7,COc1ccnc(NC(=O)[C@H](Sc2nc(N)nc3nc[nH]c23)C(C)C)n1 [Compound 511],≤ 100
8,COc1nc(NC(=O)[C@H](Sc2nc(N)nc3nc[nH]c23)C(C)C)ncc1Br [Compound 514],≤ 100
9,COc1nc(NC(=O)[C@@H](Sc2nc(N)nc3nc[nH]c23)C(C)C)ncc1Br [Compound 515],≤ 100
10,COc1ccnc(NC(=O)[C@@H](Cc2ccccc2)Sc2nc(N)nc3nc[nH]c23)n1 [Compound 516],≤ 100
11,COc1ccnc(NC(=O)[C@H](Cc2ccccc2)Sc2nc(N)nc3nc[nH]c23)n1 [Compound 517],≤ 100
12,COc1nc(NC(=O)C(C)(C)Sc2nc(N)nc3nc[nH]c23)ncc1F [Compound 529],≤ 100
13,CC(C)Oc1ccnc(NC(=O)C(C)(C)Sc2nc(N)nc3nc[nH]c23)n1 [Compound 534],≤ 100
14,CC(C)Oc1nc(NC(=O)C(C)(C)Sc2nc(N)nc3nc[nH]c23)ncc1Br [Compound 543],≤ 100
15,COc1nc(NC(=O)[C@@H](Cc2ccccc2)Sc2nc(N)nc3nc[nH]c23)ncc1Cl [Compound 551],≤ 100
16,COc1nc(NC(=O)[C@@H](Cc2ccccc2)Sc2nc(N)nc3nc[nH]c23)ncc1Br [Compound 552],≤ 100
17,COc1nc(NC(=O)[C@H](Cc2ccccc2)Sc2nc(N)nc3nc[nH]c23)ncc1Cl [Compound 554],≤ 100

# Further lines, results first:
row,Ki [nM],SMILES
1,≤ 100,"COc1ccc(NC(=O)CSc2nc(N)nc3nc[nH]c23)cc1OC [Compound 46, 2-((2-amino-7H-purin-6-yl)thio)-N-(3,4-dimethoxyphenyl)acetamide]"
2,≤ 100,Nc1nc(SCC(=O)Nc2ccc3c(c2)OCO3)c2[nH]cnc2n1 [Compound 78]
3,≤ 100,COc1ccnc(NC(=O)CSc2nc(N)nc3nc[nH]c23)c1 [Compound 109]
4,≤ 100,COc1ccc(NC(=O)CSc2nc(N)nc3nc[nH]c23)cc1Cl [Compound 128]
5,≤ 100,"COc1ccc(C(=O)NCCSc2nc(N)nc3nc[nH]c23)cc1OC [Compound 148, N-(2-((2-amino-7H-purin-6-yl)thio)ethyl)-3,4-dimethoxybenzamide]"
6,≤ 100,COc1ccc(NC(=O)CSc2nc(N)nc3nc[nH]c23)nc1OC [Compound 160]
7,≤ 100,Nc1nc(SCC(=O)Nc2ccc3ncsc3c2)c2[nH]cnc2n1 [Compound 181]
8,≤ 100,Cc1nc2cc(NC(=O)CSc3nc(N)nc4nc[nH]c34)ccc2s1 [Compound 182]
9,≤ 100,Nc1nc(SCC(=O)Nc2ccc3ncccc3c2)c2[nH]cnc2n1 [Compound 184]
10,≤ 100,Nc1nc(SCC(=O)Nc2ccc3nccnc3c2)c2[nH]cnc2n1 [Compound 185]
11,≤ 100,Nc1nc(SCC(=O)Nc2ccc(O)c(Br)c2)c2[nH]cnc2n1 [Compound 194]
12,≤ 100,CC(=O)c1cc(NC(=O)CSc2nc(N)nc3nc[nH]c23)ccc1O [Compound 199]
13,≤ 100,COc1ccnc(NC(=O)CSc2nc(N)nc3nc[nH]c23)n1 [Compound 201]
14,≤ 100,Nc1nc(SCC(=O)Nc2ccc(Cl)c(O)c2)c2[nH]cnc2n1 [Compound 207]
15,≤ 100,CCC(Sc1nc(N)nc2nc[nH]c12)C(=O)Nc1ccc(O)c(C(=O)O)c1 (centres unmarked) [Compound 249]
16,≤ 100,CC[C@H](Sc1nc(N)nc2nc[nH]c12)C(=O)Nc1ccc(O)c(C(=O)O)c1 [Compound 267]

row,Ki [nM],SMILES
1,≤ 100,CC(C)[C@H](Sc1nc(N)nc2nc[nH]c12)C(=O)Nc1ccc(O)c(C(=O)O)c1 [Compound 269]
2,≤ 100,COc1cc(NC(=O)[C@@H](Sc2nc(N)nc3nc[nH]c23)C(C)C)ccc1O [Compound 270]
3,≤ 100,COc1cc(NC(=O)[C@H](CC(C)C)Sc2nc(N)nc3nc[nH]c23)ccc1O [Compound 272]
4,≤ 100,COc1cc(NC(=O)[C@H](Sc2nc(N)nc3nc[nH]c23)c2ccccc2)ccc1O [Compound 329]
5,≤ 100,COc1ccc(NC(=S)CSc2nc(N)nc3nc[nH]c23)cc1OC [Compound 355]
6,≤ 100,CC[C@@H](Sc1nc(N)nc2nc[nH]c12)C(=O)Nc1nccc(OC)n1 [Compound 389]
7,≤ 100,Nc1nc(SCC(=S)Nc2ccc(O)c(C(=O)O)c2)c2[nH]cnc2n1 [Compound 408]
8,≤ 100,CC[C@H](Sc1nc(N)nc2nc[nH]c12)C(=O)Nc1nccc(OC)n1 [Compound 435]
9,≤ 100,CC[C@@H](Sc1nc(N)nc2nc[nH]c12)C(=O)Nc1cc(OC)ccn1 [Compound 471]
10,≤ 100,CC[C@H](Sc1nc(N)nc2nc[nH]c12)C(=O)Nc1ccc(OC)c(OC)n1 [Compound 472]
11,≤ 100,Nc1nc(S[C@@H](CCc2ccccc2)C(=O)Nc2ccc(O)c(C(=O)O)c2)c2[nH]cnc2n1 [Compound 485]
12,≤ 100,COc1ccnc(NC(=O)[C@@H](C)Sc2nc(N)nc3nc[nH]c23)n1 [Compound 486]
13,≤ 100,COc1ccnc(NC(=O)[C@H](C)Sc2nc(N)nc3nc[nH]c23)n1 [Compound 487]
14,≤ 100,COc1ccc(NC(=O)[C@@H](C)Sc2nc(N)nc3nc[nH]c23)nc1OC [Compound 490]
15,≤ 100,COc1ccc(NC(=O)[C@H](C)Sc2nc(N)nc3nc[nH]c23)nc1OC [Compound 491]
16,≤ 100,CC[C@@H](Sc1nc(N)nc2nc[nH]c12)C(=O)Nc1nc(Cl)cc(OC)n1 [Compound 496]

# Same assay, conditions: bin of Table 4; Ki from IC50 by Cheng-Prusoff, 400 μM ATP
row,Ki [nM],SMILES
1,≥ 1000,COc1cc2ncc(Nc3cc(S(N)(=O)=O)ccc3C)nc2cc1OC [Compound 8]
2,≥ 1000,COc1ccc(NC(=O)Cn2cnc3cnccc32)cc1OC [Compound 11]
3,≥ 1000,COc1ccc(NC(=O)Cn2cnc3ncnc(N)c32)cc1OC [Compound 18]
4,≥ 1000,COc1ccc(NC(=O)CSc2nc3ccncc3o2)cc1OC [Compound 22]
5,≥ 1000,Cc1ccc(S(N)(=O)=O)cc1NC(=O)Cn1cnc2ncnc(N)c21 [Compound 30]
6,≥ 1000,COc1ccc(NC(=O)Cn2nnc3ncccc32)cc1OC [Compound 35]
7,≥ 1000,COc1cc2ncc(SCC(=O)Nc3cc(S(N)(=O)=O)ccc3C)nc2cc1OC [Compound 36]
8,≥ 1000,COc1ccc(NC(=O)CSc2ncnc3[nH]cnc23)cc1OC [Compound 45]
9,≥ 1000,CCOc1ccc(NC(=O)CSc2nc(N)nc3nc[nH]c23)cc1OCC [Compound 84]
10,≥ 1000,Nc1nc(SCC(=O)Nc2ccc3c(c2)OC(F)(F)O3)c2[nH]cnc2n1 [Compound 90]
11,≥ 1000,COc1ccc(NC(=O)CSc2nc(N)nc3ncn(C)c23)cc1OC [Compound 98]
12,≥ 1000,Nc1nc(SCC(=O)NCc2ccccc2)c2[nH]cnc2n1 [Compound 103]
13,≥ 1000,COc1ccc(CNC(=O)CSc2nc(N)nc3nc[nH]c23)cc1OC [Compound 105]
14,≥ 1000,COc1ccc(NC(=O)CSc2nc(N)nc3nc[nH]c23)cc1 [Compound 107]
15,≥ 1000,COc1ccc(NC(=O)CSc2nc(N)nc3nc[nH]c23)cc1C(=O)O [Compound 144]
16,≥ 1000,CC(C)(Sc1nc(N)nc2nc[nH]c12)C(=O)Nc1ccc(O)c(C(=O)O)c1 [Compound 251]
